pIC50: −log10 of the molar value. Converted amounts (≈) assume the structure as drawn. Like-named read-outs stand apart in the source and are kept apart here.

Experimental findings from US20250282764A1, “IMIDAZOLE HETEROCYCLE BASED COMPOUNDS AND METHODS OF TREATING CANCER” (King Abdulaziz University, priority 2024, published 2025) are described below.

One series relates to HCT116. The experiment in a line: CellTiter-Blue cell viability assay, HCT116. Format: cell-based, human. As to conditions: 50% cell viability vs untreated, mean of triplicates. As to the method:
(§1) Cell culture of colorectal carcinoma cell lines was performed as follows. DLD-1, HCT116, and HT-29 cells were purchased from CLS Cell Line Service GmbH (Eppelheim, Germany) and cultured in Dulbecco's Modified Eagle Medium (DMEM) high glucose, GlutaMAX™ Supplement, pyruvate (Thermo Fisher Scientific, Paisley, UK) supplemented with 10% fetal bovine serum (FBS; Thermo Fisher Scientific), 200 U/mL penicillin, and 200 μg/ml streptomycin (Thermo Fisher Scientific), at 37° C. with 5% CO2 in a humidified incubator.
(§2) The CellTiter®-Blue Cell Viability assay was acquired from Promega Corporation (Madison, WI, USA). Cell viability assay was performed as follows: DLD-1 (4×10^3/well), HCT116 (4×10^3/well), and HT-29 (7×10^3/well) were incubated with a concentration gradient of compound (Id) ranging from 0.01 to 20 μM, in 96-well plates for 48 h at 37° C. Subsequently, 20 μl CellTiter®-Blue Cell Viability reagent was added to each well and incubated for an additional 2 h for the development of fluorescence. The fluorescence emission was measured at 590 nm using a SpectraMax® i3× Multi-Mode microplate reader (Molecular Devices, LLC, San Jose, CA, USA) and plotted against drug concentrations to determine the mean inhibitory concentration of compound (Id) producing 50% decrease in cell viability (IC50). Experiments were performed in triplicates.
Background: Alamar Blue is a resazurin reagent that responds to reducing activity.

Series [1] in a line: Stability in mouse liver microsomes. It counts as in vitro ADME. As to the method:
The clearance of compound (Id) in mouse or human liver microsomes was determined at 37° C. Both mouse and human liver microsomes were obtained from Merck KGaA, (Darmstadt, Germany), Cat. No. M9441 (Mouse liver microsomes) and M0317 (Human liver microsomes). Assays were conducted in triplicate in 96-deep well polypropylene plates. […] At five time points, reaction mixture aliquots were transferred to 96-shallow well stop plates on ice containing acetonitrile with 0.1 μM propafenone. […] Standard curves for test compounds were generated using 5 concentrations in triplicate that were processed as above but with zero incubation time. Stop plates were centrifuged at 2000 g for 10 min and then supernatant aliquots were transferred to a Waters Aquity® UPLC 700 μL 96-well sample plate with cap mat (Waters, Milford, MA). The amount of compound remaining in the supernatant was quantified by LC/MS/MS using a Waters Xevo TQ MS (electrospray positive mode) coupled to a Waters Aquity® UPLC (BEH column, C18). Propafenone was used as the internal standard. GraphPad® Prism v 5.04 was used for nonlinear fitting of time course data to generate t1/2 values.
On the technique in general: Liver microsomes are a subcellular fraction often used to study metabolism.

A further series deals with KG1a. The series is described as follows: CellTiter-Blue cell viability assay, KG1a. It counts as cell-based, human. As to conditions: 48 h, mean of triplicates. As to the method: (§3) Cell culture of leukemia cell lines model was performed as follows. HL60, K562, and NB4 cell lines were purchased from CLS Cell Line Service GmbH (Eppelheim, Germany). MV4-11 cell line was purchased from American Type Culture Collection (ATCC; Virginia, USA). KG1α also referred to as KG1a was a gift from Prof. Ghulam Mufti (King College London, UK). Kasumi-1 cell line was purchased from Nawah Scientific (Cairo, Egypt). All cell lines were cultured in Roswell Park Memorial Institute-1640 (RPMI-1640) culture medium supplemented with 10% fetal bovine serum (FBS) (Thermo Fisher Scientific) and 0.1% ciprofloxacin (10 μg/ml; Cipla Limited; Mumbai, India). Cells were maintained in a humidified incubator at 37° C. with 5% CO2.
(§4) Cell viability was determined using the CellTiter-Blue® Cell Viability Assay kit (Promega, Madison, WI, USA). Approximately […] were plated in 96 well plate in the presence of increasing drug concentration in triplicate and incubated for 48 h at 37° C. in a humidified incubator. After the incubation period, 20 μL of the cell titer blue reagent was added to each well and the plate was incubated for additional 2 h for the development of florescence. Florescence was measured at 540Ex/590Em on SpectraMax i3 Multi-Mode Microplate Reader (Molecular Devices, LLC; San Jose, CA, USA). […]

Series [2] in a line: Maximum kinetic aqueous solubility. It counts as physicochemical. As to conditions: 2% DMSO/PBS, pH 7.4, read-out: Max. aq. Sol. As to the method:
Solubility assays were performed using Millipore MultiScreen® HTS-PFC Filter Plates designed for solubility assays (EMD Millipore, Billerica, MA). Assays were run in triplicate. The 96-well plates consist of two chambers separated by a filter. Liquid handling was performed using JANUS® Verispan and MTD workstations (Perkin Elmer, Waltham, MA). 4 μL of compound (Id) solution (10 mM in DMSO) was added to 196 μL of phosphate buffer (45 mM potassium phosphate, 45 mM sodium acetate, 45 mM ethanolamine, pH=7.4) in the top chamber to give a final DMSO concentration of 2% and a theoretical drug concentration of 200 μM. Plates were gently shaken for 90 min and then subjected to vacuum. Insoluble drug was captured on the filter. 160 μL of the filtrate was transferred to 96-well Griener UV Star® analysis plates (Sigma-Aldrich, St. Louis, MO) containing 40 μL of acetonitrile. The test compound concentration in the filtrates was measured by UV absorbance on a SpectraMax® Plus microplate reader (Molecular Devices, Sunnyvale, CA) using Softmax Pro software v.5.4.5. Absorbances at 5 wavelengths (280, 300, 320, 340, and 360 nm) were summed to generate the UV signal. Standard curves were generated by adding 4 μL of five concentrations of test compound in DMSO to 40 μL of acetonitrile in UV Star plates followed by 156 μL of the appropriate solubility medium. Analysis and statistics were performed using GraphPad® Prism v.5.04. Data were reported as the maximum concentration observed in the filtrate.

The test system of another series is MV4-11. The experiment in a line: CellTiter-Blue cell viability assay, MV4-11. Conditions: 48 h, mean of triplicates. Format: cell-based, human. As to the method: as §3, §4
The next series relates to DLD1. The series is described as follows: CellTiter-Blue cell viability assay, DLD1. It counts as cell-based, human. As to conditions: 48 h, 50% cell viability vs untreated, mean of triplicates. As to the method: as §1, §2

Usually pIC50 stands for −log10 of the IC50, conventionally taken in molar units. Regarding `COc1ccc(/C=C2\N=C(C)N(c3ccc(CC(=O)NCc4ccccc4)cc3)C2=O)cc1` [KIM-161, reference compound], the pIC50 was 5.75 in the series with HCT116 (48 h), 6.55 in the series with KG1a, 6.44 with MV4-11 and 5.76 with DLD1. Besides, the “Mic. Ctrl. Mouse % @60 min” value in series [1] stood at 112%. The “Stability MLM t1/2” value in series [1] (mouse liver microsomes, in presence of NADPH, 37° C.) was 14.8 min. For the same compound, the solubility kinetic at 90 min in series [2] stood at 19.9 µM (≈ 8.75 µg/mL).

With `CC1=N/C(=C\c2ccc(C)o2)C(=O)N1c1ccc(CC(=O)NCc2ccccc2)cc1` [Compound (Id), 2-Methyl-4-(5-methyl-2-furyl)methylene-1-[4-(benzylaminocarbonylmethyl)phenyl]-5-oxo-1H-imidazole], the pIC50 in the series on HCT116 (48 h) was 5.84; in the series with HCT116 (Homo sapiens, HCT-116, 48 h), 5.84; in the series with KG1a (Homo sapiens, KG-1a), 6.31; with MV4-11 (Homo sapiens, MV4-11), 6.60; in the series on DLD1 (Homo sapiens, DLD-1) it was 5.87. For the same compound, in series [1] (male, CD-1, mouse liver microsomes, in presence of NADPH, 37° C., read-out: Stability MLM t1/2), the half-life was determined as 16.6 min. Also, the “Mic. Ctrl. Mouse % @60 min” value in series [1] (without NADPH, percent remaining after 60 min incubation) was 90%; in series [1] (without NADPH, percent remaining after 60 min incubation, listed as compound (Id)), “did not change”. Moreover, the solubility kinetic at 90 min in series [2] stood at 79.8 µM (≈ 33 µg/mL); in series [2] (phosphate buffer with 2% DMSO, aqueous buffer, kinetic from dmso stock), 79.8 µM (≈ 33 µg/mL).
